Experimental data as given in article PMC12439166, “Dietary flavonoids form supramolecular assemblies, alter biochemistry, and enhance cell resilience” (Frontiers in Nutrition, 2025).
Entries after “also recorded” stand apart in the source; their conditions may differ.

Target: T1, MAP/microtubule affinity-regulating kinase 4 (MARK4) (Homo sapiens, UniProt Q96L34)
T1 sequence (Q96L34 1-752): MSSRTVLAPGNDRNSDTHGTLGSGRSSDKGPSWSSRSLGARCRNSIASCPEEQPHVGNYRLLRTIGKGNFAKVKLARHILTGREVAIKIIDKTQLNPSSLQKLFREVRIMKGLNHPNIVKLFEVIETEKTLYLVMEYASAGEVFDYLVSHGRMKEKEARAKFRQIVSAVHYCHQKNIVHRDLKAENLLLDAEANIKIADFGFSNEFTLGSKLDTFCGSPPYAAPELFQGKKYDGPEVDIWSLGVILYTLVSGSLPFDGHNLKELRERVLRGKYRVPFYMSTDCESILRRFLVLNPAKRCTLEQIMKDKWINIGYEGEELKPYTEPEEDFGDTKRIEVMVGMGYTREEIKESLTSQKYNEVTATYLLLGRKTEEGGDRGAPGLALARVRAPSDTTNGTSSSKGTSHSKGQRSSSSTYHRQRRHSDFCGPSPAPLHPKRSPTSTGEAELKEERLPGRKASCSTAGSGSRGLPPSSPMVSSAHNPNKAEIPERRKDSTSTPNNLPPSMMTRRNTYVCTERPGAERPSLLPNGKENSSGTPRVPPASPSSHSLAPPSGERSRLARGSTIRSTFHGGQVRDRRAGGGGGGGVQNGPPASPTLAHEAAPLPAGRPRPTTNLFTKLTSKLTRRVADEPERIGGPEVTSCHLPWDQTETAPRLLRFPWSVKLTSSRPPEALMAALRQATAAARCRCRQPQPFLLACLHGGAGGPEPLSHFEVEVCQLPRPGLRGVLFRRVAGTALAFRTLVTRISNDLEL
Experiment: Enzyme activity assay (SAMDI-MS), MARK4
Type: biochemical
Settings: 10 concentrations, 5 nM to 100 μM, compounds incubated with enzyme 30 min, result in words
Procedure: Enzyme screens were performed by SAMDI Tech (contract research organization); enzyme assays were performed in a 20 μL volume in 384-well low-volume polypropylene microtiter plates (Greiner Bio-One) at room temperature. The enzymes [Arginase 1 (ARG1), Lysine demethylase 4C (KDM4C), MAP/microtubule affinity-regulating kinase 4 (MARK4), Histone-Lysine N-methyltransferase (NSD2), Tyrosine-protein phosphatase non-receptor type 1 (PTP1B), and Sirtuin-3 (SIRT3)] were incubated with compounds for 30 min prior to initiation of the reaction by the addition of substrate and cofactors (if required). Reactions were quenched by the addition of 0.5% formic acid (final) with subsequent neutralization using 1% sodium bicarbonate (final). For SAMDI MS analysis, 2 μL of each reaction was transferred using a 384-channel automated liquid handler to SAMDI biochip arrays functionalized with a neutravidin-presenting self-assembled monolayer. The preparation of SAMDI biochip arrays has been previously described ([41], [42], [49]). The SAMDI arrays were incubated for 1 h in a humidified chamber to allow specific immobilization of the biotinylated substrates and products; they were then purified by washing with ultrafiltered water (50 μL/spot) and dried with compressed air. A matrix comprising α-Cyano-4-hydroxycinnamic acid in 80% acetonitrile: 20% aqueous ammonium citrate (10 mg/mL final) was applied in an automated format by dispensing 50 nL to each spot in the array. SAMDI MS was performed using reflector positive mode on an AB Sciex TOF-TOF 5800 System (AB Sciex, Framingham, MA) with 400 shots/spot analyzed in a random raster sampling. For data analysis, the area under the curves (AUCs) for the product peak and substrate peak were calculated using the TOF/TOF Series Explorer (AB Sciex), and the amount of product formed was calculated using the equation AUC product / (AUC product + AUC Substrate). Negative controls were pre-quenched with 0.5% formic acid (final). Lysozyme assay was performed using the manufacturer’s instructions (Biovision Lysozyme inhibitor screening kit K237). Flavonoids were acquired from Sigma-Aldrich and Seleckchem.
IC50 values of enzyme inhibition. Inhibition of the enzymes was measured at 10 concentration values in the range of 5 nM to 100 μM for each compound and enzyme, with two technical replicates; the percent inhibition values were determined by SAMDI software. Sigmoidal curves were fitted to the percent inhibition vs log10 (concentration) series, and IC50 values were determined at the crossing point of 50 % inhibition. […] First, for each IC50 value per compound and enzyme, a Z-score was calculated based on the log10 (IC50) value and that of the compounds that produced a successful readout for enzyme i , according to Equation 1: […]

SMILES | inhibition of enzyme activity, MARK4 | inhibition of enzyme activity, MARK4 (listed as Quercetin) | inhibition of enzyme activity, MARK4 (listed as Quercitin)
O=c1c(O[C@@H]2O[C@H](CO)[C@@H](O)[C@H](O)[C@H]2O)c(-c2ccc(O)c(O)c2)oc2cc(O)cc(O)c12 [isoquercitrin] | inhibited | – | –
C[C@@H]1O[C@@H](Oc2c(-c3ccc(O)c(O)c3)oc3cc(O)cc(O)c3c2=O)[C@H](O)[C@H](O)[C@H]1O [quercitrin] | did not affect; also recorded: did not inhibit | – | –
O=c1c(O)c(-c2ccc(O)c(O)c2)oc2cc(O)cc(O)c12 [quercetin] | – | inhibited | concentration-dependent inhibition
